The text below walks through data of patent US11525106B2, “Tetraacetyldiamine and triacetyldiamine derivatives useful as bleach activators” (DOW GLOBAL TECHNOLOGIES LLC, priority 2018, dated 2022).

A short description of data set [1]: perhydrolytic degradation in the presence of sodium perborate (10 equiv.), followed by HPLC. The class given is physicochemical. Conditions: sodium perborate/persalts 10 equiv. As to the method: (§1) To study the hydrolytic degradation, 1 and 2 were dissolved in Tris buffer (pH 8.0, 0.1 M):acetonitrile (can) mixture (3:1, v/v) at 50 μg/mL. The perhydrolytic degradation was evaluated at similar conditions in the presence of sodium perborate (10 equiv.). Commercially available bleach activator, tetraacetylethylenediamine (TAED), was used as a control. The mixture was incubated at room temperature (20° C.) for 20 days. At different time intervals, an aliquot of the solution was taken out and analyzed by HPLC. The concentration of 1 and 2 was quantified by UV-vis absorption at Δmax=218 nm through standard curve. For the bleaching test, 1, 2, TAED, and other control molecules (20 mg) were treated with commercially available food dyes (100× dilution, 1 mL) and hydrogen peroxide (H2O2, 30%, 1 mL). The mixtures were incubated at room temperature (20° C.) and checked at different time intervals to monitor the bleaching of the dyes.

A short description of data set [2]: bleaching test with food dye and hydrogen peroxide. Conditions: FIG. 2; for time after which the blue color was bleached: food dye in Tris buffer pH 8.0 with H2O2 (30%) 1:1, 10 mg compound per mL; for bleaching activation effect: food dye (blue) with H2O2, room temperature. As for the experimental part: as §1
The compounds of the invention were subjected to a bleaching test. The food dye was purchased from Adams Extract, and diluted 500 times with Tris buffer (pH 8.0, 0.1 M) before use. The diluted food dye was mixed with H2O2 (30%) in 1:1 ratio (v/v). For every 10 mg of TAED/TA(Me)ED/TriA(Me)ED, 1 mL of food dye/H2O2 mixture was added. The widely used bleach activator TAED actively reacted with H2O2, and the blue color disappeared after about 24 hours.

A short description of data set [3]: hydrolytic degradation in buffer, followed by HPLC. The class given is physicochemical. As to conditions: for kH (hydrolysis rate constant) / half-life at 50 μg/mL: Tris buffer pH 8.0 (0.1 M):acetonitrile 3:1, 50 μg/mL, 20° C.; for half-life at 50 μg/mL: Tris buffer:acetonitrile (3:1, v/v), read-out: t1/2,H (hydrolysis half-life) (converted); for half-life relative to half-life of TAED: pH 8.0; for hydrolytic degradation compared with TAED: pH 8.0, FIG. 1A. As to the method: as §1

Data set [4] in a line: hydrolytic degradation in buffer, followed by HPLC. The class given is physicochemical. Conditions: pH 9.0.
Data set [5] is described as follows: solubility in aqueous environment. The class given is physicochemical. As to conditions: without organic solvent.

On to `CC(=O)N(CC(C)N(C(C)=O)C(C)=O)C(C)=O` (stereo not drawn) [Compound 1, N,N′-(propane-1,2-diyl)bis(N-acetylacetamide)], for which, in data set [1], the “perhydrolysis rate, comparison among TAED, 1 and 2” value (shortened to “perhydrolysis rate”) was “comparable”. Also, the “time after which the blue color was bleached” value (“time” below) in data set [2] worked out at 24 h. Moreover, in data set [3], the “kH (hydrolysis rate constant)” value amounted to 0.0038 h⁻¹, the half-life at 50 μg/mL is 7.54 days, the “half-life relative to half-life of TAED” value was found to be 1.5 times longer and the “hydrolytic degradation compared with TAED” value is recorded as “slower degradation”. Besides, the “hydrolysis compared to TAED” value in data set [3] (pH values between about 5 and 9) is listed as “slower hydrolysis”. For the same molecule, the “half-life relative to half-life of TAED” value in data set [4] was determined as 2.6 times longer.
Turning to `CC(=O)NC(C)CN(C(C)=O)C(C)=O` (stereo not drawn) [Compound 2, N-(2-acetamidopropyl)-N-acetylacetamide], the “perhydrolysis rate” value in data set [1] is “comparable”. In data set [2], the bleaching activation effect entry is “much slower bleaching action” and the “time” value stood at 24 h. For the same molecule, in data set [3], the “kH (hydrolysis rate constant)” value was determined as 0.0015 h⁻¹, the half-life at 50 μg/mL was 19.2 days, the “half-life relative to half-life of TAED” value turned out to be 5.7 times longer and the “hydrolytic degradation compared with TAED” value is given as “slower degradation”. Also, the “hydrolysis compared to TAED” value in data set [3] (basic pH) is reported as “even slower hydrolysis”. Besides, the “half-life relative to half-life of TAED” value in data set [4] stood at 5.8 times longer.
As for `CC(=O)NCC(C)NC(C)=O` (stereo not drawn) [Compound 3, N,N′-(propane-1,2-diyl)diacetamide, reference compound], the bleaching activation effect result in data set [2] was “did not exhibit any bleaching activation effect”.
Same read-out and setting: with `CC(=O)NCCNC(C)=O` [DAED, diacetylethylenediamine, reference compound] the entry was “did not exhibit any bleaching activation effect”.
With `CC(=O)N(CCN(C(C)=O)C(C)=O)C(C)=O` [TAED, tetraacetylethylenediamine, reference compound], the “perhydrolysis rate” value in data set [1] is “comparable”. The solubility in water entry in data set [5] was “cannot be easily solubilized in water”. Moreover, the “time” value in data set [2] was “about 24 hours”. Besides, in data set [3], the “kH (hydrolysis rate constant)” value stood at 0.0091 h⁻¹ and the half-life at 50 μg/mL was 3.17 days.
